This is an account of results in the NIST ThermoML archive (doi:10.1016/j.jct.2014.02.024).

Molecules are shown by their SMILES. ± gives the expanded uncertainty stated by the source.

For data set [1] the following is noted: 101.3 kPa, Liquid; for viscosity: Capillary tube (Ostwald / Ubbelohde) method; for mass density: Pycnometric method.
Data set [2] in a line: mn = molality of the nth substance listed, in mol/kg. To be noted: 101.3 kPa, Liquid, m2 = 0; for viscosity: Capillary tube (Ostwald / Ubbelohde) method; for mass density: Pycnometric method.

For `O` [water], the viscosity – broadly, the resistance of a fluid to flow – in data set [1] (275.15 K) was 1.674 ± 0.036 mPa·s; in data set [1] (277.15 K), 1.567 ± 0.034 mPa·s; in data set [1] (279.15 K), 1.472 ± 0.032 mPa·s. Further, the mass density (commonly the mass of a sample divided by its volume) in data set [1] (275.15 K) turned out to be 999.94 ± 0.92 kg/m3; in data set [1] (277.15 K), 999.97 ± 0.92 kg/m3; in data set [1] (279.15 K) it was 999.94 ± 0.92 kg/m3.

As to `O` [water] + NC(=O)c1cccnc1, the viscosity in data set [2] (275.15 K) is recorded as 1.674 ± 0.036 mPa·s; in data set [2] (277.15 K), 1.567 ± 0.034 mPa·s; in data set [2] (279.15 K) it was 1.472 ± 0.032 mPa·s. Besides, the mass density in data set [2] (275.15 K) stood at 999.94 ± 0.92 kg/m3; in data set [2] (277.15 K), 999.97 ± 0.92 kg/m3; in data set [2] (279.15 K) it was 999.94 ± 0.92 kg/m3.

For the molecule `O` [water] + O=C(O)c1cccnc1, the viscosity in data set [2] (275.15 K) was 1.674 ± 0.036 mPa·s; in data set [2] (277.15 K), 1.567 ± 0.034 mPa·s; in data set [2] (279.15 K), 1.472 ± 0.032 mPa·s. In addition, the mass density in data set [2] (275.15 K) amounted to 999.94 ± 0.92 kg/m3; in data set [2] (277.15 K) it was 999.97 ± 0.92 kg/m3; in data set [2] (279.15 K) it was 999.94 ± 0.92 kg/m3.
